From the NIST ThermoML archive (doi:10.1021/je060271a)

Conditions: 283.15 K, Liquid, Vibrating tube method

CCCCCC(=O)OCC(COC(=O)CCCCC)(COC(=O)CCCCC)COC(=O)CCCCC [pentaerythritol tetrahexanoate]
Conditions | mass density [kg/m3]
1506.3 kPa | 1004.9
1520.4 kPa | 1005.1
1534.6 kPa | 1005.1
1551.6 kPa | 1005.1
1566 kPa | 1005.2
1580.3 kPa | 1005
1737.7 kPa | 1005.1
1752.5 kPa | 1005.1
1815.1 kPa | 1005.3
1862 kPa | 1005.2
1876.2 kPa | 1005.2
1889.8 kPa | 1005.2
1905.4 kPa | 1005.1
1918.9 kPa | 1005.2
1932.5 kPa | 1005.2
1949.3 kPa | 1005.2
1963.5 kPa | 1005.2
1978.6 kPa | 1005.2
1993.5 kPa | 1005.3
2005.3 kPa | 1005.3
2024.6 kPa | 1005.3
2039 kPa | 1005.3
2053.8 kPa | 1005.3
2068.7 kPa | 1005.3
2086.4 kPa | 1005.3
2102 kPa | 1005.4
2118 kPa | 1005.4
2136.7 kPa | 1005.4
2153 kPa | 1005.4
2165.7 kPa | 1005.4
2185.6 kPa | 1005.4
2205.4 kPa | 1005.4
2292.8 kPa | 1005.5
2303.8 kPa | 1005.5
2314.9 kPa | 1005.4
2328.2 kPa | 1005.4
2339.2 kPa | 1005.5
2350.1 kPa | 1005.5
2363.3 kPa | 1005.4
2374.2 kPa | 1005.4
2385.1 kPa | 1005.4
2398.1 kPa | 1005.5
2409.2 kPa | 1005.6
2420.2 kPa | 1005.6
2433.2 kPa | 1005.5
2443.9 kPa | 1005.6
2455 kPa | 1005.6
2468.4 kPa | 1005.6
2479.7 kPa | 1005.6
2490.8 kPa | 1005.5
2502 kPa | 1005.6
2515.9 kPa | 1005.6
2526.8 kPa | 1005.5
2552.3 kPa | 1005.6
2576.1 kPa | 1005.6
2587.9 kPa | 1005.7
2601.9 kPa | 1005.7
2613.9 kPa | 1005.7
2626 kPa | 1005.6
2640.3 kPa | 1005.7
2652.7 kPa | 1005.6
2664.9 kPa | 1005.8
2679.3 kPa | 1005.7
2692.1 kPa | 1005.6
2704.8 kPa | 1005.7
2717.4 kPa | 1005.8
2732.7 kPa | 1005.8
2745.7 kPa | 1005.8
2756.3 kPa | 1005.7
2768.9 kPa | 1005.7
2784.7 kPa | 1005.7
2800 kPa | 1005.8
2826.3 kPa | 1005.9
2841.9 kPa | 1005.7
2869.2 kPa | 1005.8
2883.2 kPa | 1005.8
2897.6 kPa | 1005.8
2911.3 kPa | 1005.7
2927.9 kPa | 1005.8
2942 kPa | 1005.9
2956 kPa | 1005.9
2973 kPa | 1005.9
2987.2 kPa | 1005.9
3001.4 kPa | 1005.9
3015.3 kPa | 1005.8
3032.1 kPa | 1005.8
3046.9 kPa | 1005.9
3061.4 kPa | 1005.9
3079.7 kPa | 1005.7
3094.3 kPa | 1006
3108.7 kPa | 1005.9
3123.8 kPa | 1006
3141.8 kPa | 1006
3157 kPa | 1006
3172.3 kPa | 1006
3187.9 kPa | 1005.9
3203.2 kPa | 1006
3221.5 kPa | 1005.9
3236.8 kPa | 1006.1
3337.6 kPa | 1006.1
3353.6 kPa | 1006.1
3404.7 kPa | 1006.2
3956.5 kPa | 1006.4
3974.5 kPa | 1006.6
3996.3 kPa | 1006.6
4014.4 kPa | 1006.5
4032.7 kPa | 1006.5
4054 kPa | 1006.5
4072 kPa | 1006.5
4090 kPa | 1006.6
4111.5 kPa | 1006.5
4129.7 kPa | 1006.7
4147.7 kPa | 1006.6
4165.7 kPa | 1006.5
4186.7 kPa | 1006.6
4204.2 kPa | 1006.6
4221.8 kPa | 1006.7
4239.5 kPa | 1006.7
4260.6 kPa | 1006.6
4277.8 kPa | 1006.6
4294.9 kPa | 1006.7
4314.8 kPa | 1006.6
4331.6 kPa | 1006.6
4348.2 kPa | 1006.7
4364.2 kPa | 1006.7
4383.5 kPa | 1006.7
4399.6 kPa | 1006.7
4414.7 kPa | 1006.7
4432.7 kPa | 1006.6
4448.3 kPa | 1006.8
4462.4 kPa | 1006.6
4476.2 kPa | 1006.7
4489.5 kPa | 1006.7
4504.9 kPa | 1006.8
4517.6 kPa | 1006.8
4530.4 kPa | 1006.7
4542.7 kPa | 1006.7
4556.9 kPa | 1006.8
4568.3 kPa | 1006.8
4579.5 kPa | 1006.7
4590.6 kPa | 1006.8
4604.1 kPa | 1006.8
4613.3 kPa | 1006.9
4626.1 kPa | 1006.8
